Key:
[1] = Test Example 1: Pharmacokinetic study in rats (intravenous); format: in vivo; conditions: rat, SD rats, 5 mg/kg intravenous injection, plasma; for MRT last: read-out: MRT(0-t)
Protocol: A proper amount of each of SMTP-7 and compound 1 was weighed out, and 2% (final volume) DMSO and 98% (final volume) normal saline were added. After they were well mixed by vortexing and ultrasonication, a 1 mg/mL clear solution was obtained for later use.
SD Rats, at the Age of 6-8 Weeks, Weighing about 180-220 g.
About 0.20 mL of blood was collected for each sample via the jugular vein or other suitable is routes, and sodium heparin was used as the anticoagulant. The blood was placed on ice immediately after the collection. The collection was performed at a total of 10 time points: before administration, and 5 min, 0.25 h, 0.5 h, 1 h, 2 h, 4 h, 6 h, 10 h and 24 h after administration. The collected blood samples were placed in heparin anticoagulant blood collection tubes and centrifuged at 6800 g at 2-8° C. for 6 min to separate plasma. The plasma samples were stored in a freezer at −80° C. before analysis.
The plasma concentration of each test compound was determined. The analysis of quality control samples was performed while the samples were analyzed, and more than 66.7% of the quality control samples were required to have an accuracy of 80-120%.
When plasma drug concentration-time curves were plotted, BLQ was recorded as 0. When the pharmacokinetic parameters were calculated, the concentration before administration was calculated as 0; BLQ before Cmax (including “No peak”) was calculated as 0; and BLQ that occurs after Cmax (including “No peak”) was excluded from the calculation. The following pharmacokinetic parameters were calculated from the plasma concentration data of different time points using the non-compartmental analysis method of Phoenix WinNonlin 7.0 software: AUC(0−t), AUC(0−∞), T1/2, MRT, Cmax, Tmax, etc.

[2] = Test Example 2: Pharmacokinetic study in rats (intravenous); format: in vivo, SD rats; conditions: 5 mg/kg intravenous administration
Protocol: After they were well mixed by vortexing and ultrasonication, a 1 mg/mL clear solution was obtained for later use.
SD Rats, at the Age of 6-8 Weeks, Weighing about 180-240 g.
The pharmacokinetic parameters such as AUC(0−t), AUC(0−∞), T1/2, MRT, Cmax and Tmax were measured in rats according to the method of Test Example 1.

| AUC(0-t) [1] [µg·h/mL] | Cmax [1] [µg/mL] | Tmax [1] [min] | half-life [1] [h] | MRT last [1] [h] | AUC (comparison in words) [2] | T1/2 (comparison in words) [2] | SMILES |
| --- | --- | --- | --- | --- | --- | --- | --- |
| 8.01 | 26.3 | 4.8 | 6.69 ± 0.178 | 0.465 ± 0.08 | did not greatly differ | did not greatly differ | CC(C)=CCC/C(C)=C/CC[C@]1(C)Oc2c(c(O)cc3c2CN(CCC[C@@H](C(=O)O)N2Cc4c(cc(O)c5c4O[C@@](C)(CC/C=C(\C)CCC=C(C)C)[C@@H](O)C5)C2=O)C3=O)C[C@@H]1O [SMTP-7, Stachybotrys microspore triprenyl phenol-7] |
| – | – | – | – | – | lower AUC than SMTP-7 | lower T1/2 | [2H]C([2H])(C[C@@H](C(=O)O)N1Cc2c(cc(O)c3c2O[C@@](C)(CC/C=C(\C)CCC=C(C)C)[C@@H](O)C3)C1=O)CN1Cc2c(cc(O)c3c2O[C@@](C)(CC/C=C(\C)CCC=C(C)C)[C@@H](O)C3)C1=O [Compound 4, γ-Deutero SMTP-7] |
| 11.3 | 19.1 | 4.8 | 8.94 ± 0.61 | 3.06 ± 0.25 | – | – | [2H]C([2H])(CC[C@@H](C(=O)O)N1Cc2c(cc(O)c3c2O[C@@](C)(CC/C=C(\C)CCC=C(C)C)[C@@H](O)C3)C1=O)N1Cc2c(cc(O)c3c2O[C@@](C)(CC/C=C(\C)CCC=C(C)C)[C@@H](O)C3)C1=O [Compound 1, δ-Deutero SMTP-7] |
| – | – | – | – | – | did not greatly differ | did not greatly differ | [2H]C([2H])(CCN1Cc2c(cc(O)c3c2O[C@@](C)(CC/C=C(\C)CCC=C(C)C)[C@@H](O)C3)C1=O)[C@@H](C(=O)O)N1Cc2c(cc(O)c3c2O[C@@](C)(CC/C=C(\C)CCC=C(C)C)[C@@H](O)C3)C1=O [Compound 3, β-Deutero SMTP-7] |
| – | – | – | – | – | did not greatly differ | did not greatly differ | [2H][C@](CCCN1Cc2c(cc(O)c3c2O[C@@](C)(CC/C=C(\C)CCC=C(C)C)[C@@H](O)C3)C1=O)(C(=O)O)N1Cc2c(cc(O)c3c2O[C@@](C)(CC/C=C(\C)CCC=C(C)C)[C@@H](O)C3)C1=O [Compound 2, α-Deutero SMTP-7] |
